Test results as given in US9763445B2, “Safened herbicidal compositions comprising a pyridine carboxylic acid herbicide” (Dow AgroSciences, LLC, priority 2014, dated 2017).

Experiments:
[1] = test system: bird's-eye speedwell (VERPE); test: Postemergence greenhouse trial, % visual injury on bird's-eye speedwell; assay type: in vivo, Veronica persica; details: alone
Outline: (§1)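 Herbicide rates g ae/ha, safener (cloquintocet-mexyl) rates g ai/ha; spray carrier 1.5% v/v crop oil concentrate, 187 L/ha, 2nd–3rd leaf stage. Rating: visual % injury at 20-22 d.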

common poppy (PAPRH) = test: Postemergence greenhouse trial, % visual injury on common poppy; assay type: in vivo, Papaver rhoeas; details: Papaver rhoeas, post-emergence, alone, read-out: % visual injury, Ob
Outline: as §1

lambsquarters (CHEAL) = test: Postemergence greenhouse trial, % visual injury on lambsquarters; assay type: in vivo, Chenopodium album; details: Chenopodium album, post-emergence, alone, read-out: % visual injury, Ob
Outline: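 Plants at second or third true leaf stage, greenhouse-grown (14 h photoperiod, ~23/22° C.), sprayed postemergence with compounds alone or with safener cloquintocet-mexyl in 1.5% v/v Agri-dex crop oil at 187 L/ha. Visual injury scored 0–100% versus solvent-blank controls after 20-22 d; expected mixture effects by Colby's equation.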

wild mustard (SINAR) = test: Postemergence greenhouse trial, % visual injury on wild mustard; assay type: in vivo, Sinapis arvensis; details: Brassica, post-emergence, alone, read-out: % visual injury, Ob
Outline: as §1

[2] = test system: purple deadnettle (LAMPU); test: Postemergence greenhouse trial, % visual injury on purple deadnettle; assay type: in vivo, Lamium purpureum; details: alone
Outline: as §1

kochia (KCHSC) = test: Postemergence greenhouse trial, % visual injury on kochia; assay type: in vivo, Kochia scoparia; details: Bassia scoparia, post-emergence, alone, read-out: % visual injury, Ob
Outline: as §1

spring barley (HORVS) = test: Postemergence greenhouse trial, % visual injury on spring barley; assay type: in vivo, Hordeum vulgare; details: alone
Outline: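 Greenhouse crops at second to third true leaf stage sprayed postemergence at 187 L/ha with herbicide (g ae/ha) plus safener (g ai/ha) in acetone/DMSO diluted into 1.5% v/v Agri-dex. Injury scored visually versus solvent-blank controls after 20-22 d, 0 (none) to 100% (complete kill); expected mixture effects by Colby's equation.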

SMILES: Nc1c(F)c(-c2ccc3cc[nH]c3c2F)nc(C(=O)O)c1Cl [compound 1]
- % visual injury, Ob ([1]; 4.375 g/ha): 93%
- % visual injury, Ob ([1]; 8.75 g/ha): 95%
- % visual injury, Ob ([1]; 17.5 g/ha): 98%
- % visual injury, Ob ([1]; 35 g/ha): 99%
- % visual injury, Ob ([1]; 70 g/ha): 99%
- pest or weed control at 4.375 g/ha (common poppy (PAPRH); 4.375 g/ha): 97%
- pest or weed control at 8.75 g/ha (common poppy (PAPRH); 8.75 g/ha): 99%
- pest or weed control at 17.5 g/ha (common poppy (PAPRH); 17.5 g/ha): 100%
- pest or weed control at 35 g/ha (common poppy (PAPRH); 35 g/ha): 100%
- pest or weed control at 70 g/ha (common poppy (PAPRH); 70 g/ha): 100%
- pest or weed control at 4.375 g/ha (lambsquarters (CHEAL); 4.375 g/ha): 86%
- pest or weed control at 8.75 g/ha (lambsquarters (CHEAL); 8.75 g/ha): 95%
- pest or weed control at 17.5 g/ha (lambsquarters (CHEAL); 17.5 g/ha): 99%
- pest or weed control at 35 g/ha (lambsquarters (CHEAL); 35 g/ha): 100%
- pest or weed control at 70 g/ha (lambsquarters (CHEAL); 70 g/ha): 100%
- pest or weed control at 4.375 g/ha (wild mustard (SINAR); 4.375 g/ha): 85%
- pest or weed control at 8.75 g/ha (wild mustard (SINAR); 8.75 g/ha): 88%
- pest or weed control at 17.5 g/ha (wild mustard (SINAR); 17.5 g/ha): 98%
- pest or weed control at 35 g/ha (wild mustard (SINAR); 35 g/ha): 99%
- pest or weed control at 70 g/ha (wild mustard (SINAR); 70 g/ha): 100%
- % visual injury, Ob ([2]; 4.375 g/ha): 76%
- % visual injury, Ob ([2]; 8.75 g/ha): 86%
- % visual injury, Ob ([2]; 17.5 g/ha): 90%
- % visual injury, Ob ([2]; 35 g/ha): 98%
- % visual injury, Ob ([2]; 70 g/ha): 100%
- pest or weed control at 4.375 g/ha (kochia (KCHSC); 4.375 g/ha): 67%
- pest or weed control at 8.75 g/ha (kochia (KCHSC); 8.75 g/ha): 72%
- pest or weed control at 17.5 g/ha (kochia (KCHSC); 17.5 g/ha): 93%
- pest or weed control at 35 g/ha (kochia (KCHSC); 35 g/ha): 92%
- pest or weed control at 70 g/ha (kochia (KCHSC); 70 g/ha): 97%
- % visual injury, Ob (spring barley (HORVS); 4.375 g/ha): 13%
- % visual injury, Ob (spring barley (HORVS); 8.75 g/ha): 13%
- % visual injury, Ob (spring barley (HORVS); 17.5 g/ha): 24%
- % visual injury, Ob (spring barley (HORVS); 35 g/ha): 32%
- % visual injury, Ob (spring barley (HORVS); 70 g/ha): 41%
